# Data: publication PMC2929362 (Bioorganic & medicinal chemistry, 2009)
# “Also recorded” adds a separate entry of the source.
# Assays:
# Hst2 [1] = molecular target: T1, Hst2 (Saccharomyces cerevisiae, UniProt P53686); assay: biochemical; format: biochemical; details: for activity at 50 µM: read-out: % Activity at 50 μM; for activity at 500 µM: read-out: % Activity at 500 μM; for inhibition of Hst2 deacetylation by scaffold analogs (in words): SAR discussion
# Hst2 [2] = molecular target: T1, Hst2; assay: biochemical; details: for IC50 (Table 5, scaffold 12 analogs, Hst2): Hst2 fluorigenic assay
# [3] = molecular target: T2, full length human SIRT1 (FL SIRT1) (Homo sapiens, UniProt Q96EB6); assay: Fluorigenic
# T2 sequence (Q96EB6 1-747): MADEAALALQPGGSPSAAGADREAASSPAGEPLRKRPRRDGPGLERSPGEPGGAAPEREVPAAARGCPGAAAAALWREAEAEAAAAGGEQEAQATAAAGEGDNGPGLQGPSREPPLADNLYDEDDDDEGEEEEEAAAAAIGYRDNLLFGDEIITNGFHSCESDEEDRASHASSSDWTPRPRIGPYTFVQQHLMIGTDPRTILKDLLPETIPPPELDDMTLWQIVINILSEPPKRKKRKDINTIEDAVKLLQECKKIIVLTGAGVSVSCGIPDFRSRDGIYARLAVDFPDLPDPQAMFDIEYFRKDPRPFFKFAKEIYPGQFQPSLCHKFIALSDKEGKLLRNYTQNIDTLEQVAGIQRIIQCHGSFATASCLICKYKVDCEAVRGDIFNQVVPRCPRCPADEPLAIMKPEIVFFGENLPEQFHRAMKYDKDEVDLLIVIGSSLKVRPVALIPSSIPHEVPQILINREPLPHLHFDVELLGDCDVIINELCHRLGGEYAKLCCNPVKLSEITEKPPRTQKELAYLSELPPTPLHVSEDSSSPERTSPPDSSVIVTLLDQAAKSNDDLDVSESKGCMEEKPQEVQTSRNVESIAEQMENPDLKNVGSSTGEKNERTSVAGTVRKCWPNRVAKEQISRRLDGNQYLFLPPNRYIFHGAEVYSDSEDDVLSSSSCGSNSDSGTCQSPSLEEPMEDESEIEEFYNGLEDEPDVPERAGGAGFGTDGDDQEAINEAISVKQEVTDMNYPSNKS
# Hst2 [4] = molecular target: T1, Hst2; assay: Competition assay; format: biochemical; details: for α: mixed inhibition model
# Hst2 [5] = molecular target: T1, Hst2; assay: Reversibility assay; format: biochemical; details: Hst2 incubated with 10× IC50 of inhibitor, then 100-fold dilution
# human SIRT3 = molecular target: T3, human SIRT3 (Homo sapiens, UniProt Q9NTG7); assay: Inhibition of a panel of human sirtuin homologues: SIRT3; format: biochemical
# T3 sequence (Q9NTG7 1-399): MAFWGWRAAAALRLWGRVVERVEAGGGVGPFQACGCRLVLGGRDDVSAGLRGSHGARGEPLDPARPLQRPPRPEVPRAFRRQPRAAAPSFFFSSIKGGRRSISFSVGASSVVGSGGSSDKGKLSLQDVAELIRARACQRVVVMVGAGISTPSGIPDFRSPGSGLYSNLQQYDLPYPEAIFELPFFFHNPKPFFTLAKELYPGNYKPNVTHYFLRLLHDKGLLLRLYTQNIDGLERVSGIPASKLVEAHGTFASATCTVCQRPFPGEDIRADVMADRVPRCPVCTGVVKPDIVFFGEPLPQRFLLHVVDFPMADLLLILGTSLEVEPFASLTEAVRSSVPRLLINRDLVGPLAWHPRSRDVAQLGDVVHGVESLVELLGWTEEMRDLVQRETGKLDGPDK
# human SIRT2 = molecular target: T4, human SIRT2 (Homo sapiens, UniProt Q8IXJ6); assay: Inhibition of a panel of human sirtuin homologues: SIRT2; format: biochemical
# T4 sequence (Q8IXJ6 1-352 isoform Q8IXJ6-2): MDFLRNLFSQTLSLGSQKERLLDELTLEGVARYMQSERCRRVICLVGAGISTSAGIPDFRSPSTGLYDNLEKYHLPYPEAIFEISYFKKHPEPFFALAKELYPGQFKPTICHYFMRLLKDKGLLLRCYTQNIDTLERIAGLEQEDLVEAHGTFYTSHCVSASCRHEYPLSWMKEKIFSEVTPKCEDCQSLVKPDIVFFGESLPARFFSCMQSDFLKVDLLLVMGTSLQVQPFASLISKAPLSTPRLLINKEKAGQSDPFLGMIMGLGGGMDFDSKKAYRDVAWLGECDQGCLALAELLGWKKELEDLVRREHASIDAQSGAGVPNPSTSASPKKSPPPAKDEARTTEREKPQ
# T1 sequence (P53686 1-294): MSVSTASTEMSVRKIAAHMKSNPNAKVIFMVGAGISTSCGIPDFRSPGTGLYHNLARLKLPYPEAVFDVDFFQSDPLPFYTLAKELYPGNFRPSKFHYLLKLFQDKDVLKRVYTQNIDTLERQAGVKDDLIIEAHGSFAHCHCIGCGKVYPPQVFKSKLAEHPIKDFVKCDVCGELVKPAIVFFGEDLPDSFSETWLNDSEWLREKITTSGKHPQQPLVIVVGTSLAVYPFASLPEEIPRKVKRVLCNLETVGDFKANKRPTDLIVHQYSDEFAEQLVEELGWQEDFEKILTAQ
structure (smiles),measurement,setting,value
COCC#CC1c2cc(O)c(OC)cc2CCN1Cc1ccc(OC)cc1 (centres unmarked) [Compound 14b],activity at 50 µM,Hst2 [1],92%
same,activity at 500 µM,Hst2 [1],2%
O=C(O)CCCN1C(=O)c2ccccc2C1=O [Compound 47032],"IC50 (Table 5, scaffold 12 analogs, Hst2)",Hst2 [2],No inhibition
O=C1c2ccccc2C(=O)N1CCBr [Compound 91032],"IC50 (Table 5, scaffold 12 analogs, Hst2)",Hst2 [2],No inhibition
"Oc1c(Cl)cc(Cl)c(Cl)c1Cc1c(O)c(Cl)cc(Cl)c1Cl [Compound 13, hexachlorophene]",IC50,[3],34 ± 10 µM
same,IC50,Hst2 [2],12.5 ± 0.6 µM
same,Ki,"Hst2 [4]; with respect to NAD+ (varied 5-80 μM), acetyl-lysine substrate 100 μM",3.9 ± 0.7 µM
same,Ki,"Hst2 [4]; with respect to acetyl-lysine substrate (varied 3-50 μM), NAD+ 160 μM",2.5 ± 1 µM
same,Inhibition Mechanism,Hst2 [4]; substrate NAD+,fully non-competitive inhibition model; also recorded: NC (full)
same,Inhibition Mechanism,Hst2 [4]; substrate acetyl-lysine,fully mixed inhibition model; also recorded: Mixed (full)
same,α,Hst2 [4]; substrate acetyl-lysine,13.4
O=C(O)CCN1C(=O)c2ccc(-c3nc4ccccc4c(=O)o3)cc2C1=O [Compound 47054],"IC50 (Table 5, scaffold 12 analogs, Hst2)",Hst2 [2],No inhibition
Cc1ccc(OCCCC(=O)Oc2ccc3c(c2)CCC3)c(C)c1 [Compound 7985301],inhibition of Hst2 deacetylation by scaffold analogs (in words),Hst2 [1],significantly reduced potency
Cc1cc(Cc2cc(C)c(O)c(C)c2)cc(C)c1O [Compound 97252],inhibition of Hst2 deacetylation by scaffold analogs (in words),Hst2 [1],most inhibitory activity
"O=C(O)CCN1Cc2ccccc2C1=O [Compound 12, 3-(1-Oxo-1,3-dihydro-isoindol-2-yl)-propionic acid]","slope of progress curve, % of enzyme plus DMSO control",Hst2 [5],96%
same,inhibition of human SIRT3 (in words),human SIRT3,only weak inhibitory activity
same,Inhibition Mechanism,Hst2 [4]; substrate NAD+,fully non-competitive inhibition model; also recorded: NC (full)
same,Inhibition Mechanism,Hst2 [4]; substrate acetyl-lysine,fully non-competitive inhibition model; also recorded: NC (full)
same,inhibition of human SIRT2 (in words),human SIRT2,only weak inhibitory activity
C[S+]([O-])CCC(C(=O)O)N1C(=O)c2ccccc2C1=O (centres unmarked) [Compound 00032],"IC50 (Table 5, scaffold 12 analogs, Hst2)",Hst2 [2],No inhibition
Nc1ccc2c(c1)C(=O)N(CCC(=O)O)C2 [Compound 42071],"IC50 (Table 5, scaffold 12 analogs, Hst2)",Hst2 [2],No inhibition
"COCC#CC1c2cc(O)c(OC)cc2CCN1C (centres unmarked) [Compound 14a, 6-Methoxy-1-(3-methoxy-prop-1-ynyl)-2-methyl-1,2,3,4-tetrahydro-isoquinolin-7-ol]",inhibition of human SIRT3 (in words),human SIRT3,only weak inhibitory activity
same,Inhibition Mechanism,Hst2 [4]; substrate NAD+,fully mixed inhibition model; also recorded: Mixed (full)
same,α,Hst2 [4]; substrate NAD+,2.6
same,Inhibition Mechanism,Hst2 [4]; substrate acetyl-lysine,fully non-competitive inhibition model; also recorded: NC (full)
same,inhibition of human SIRT2 (in words),human SIRT2,only weak inhibitory activity
"CCc1ccc(OCCCC(=O)Oc2ccc3c(c2)oc(=O)c2ccccc23)cc1 [Compound 11, 4-(4-Ethyl-phenoxy)-butyric acid 6-oxo-6H-benzo[c]chromen-3-yl ester]","slope of progress curve, % of enzyme plus DMSO control",Hst2 [5],82%
same,inhibition of human SIRT3 (in words),human SIRT3,but not SIRT3
same,activity at 50 µM,Hst2 [1],< 1%
same,activity at 500 µM,Hst2 [1],< 1%
same,Inhibition Mechanism,Hst2 [4]; substrate NAD+,fully non-competitive inhibition model; also recorded: NC (full)
same,Inhibition Mechanism,Hst2 [4]; substrate acetyl-lysine,partial non-competitive inhibition model; also recorded: NC (partial)
same,inhibition of human SIRT2 (in words),human SIRT2,potent inhibitor of SIRT2
CC(C)C(=O)CCN1C(=O)c2ccccc2C1=O [Compound 04265],"IC50 (Table 5, scaffold 12 analogs, Hst2)",Hst2 [2],No inhibition
O=C(O)CCN1C(=O)c2cc(Cl)c(Cl)cc2C1=O [Compound 39008],"IC50 (Table 5, scaffold 12 analogs, Hst2)",Hst2 [2],No inhibition
CCc1ccc(OCCCC(=O)Oc2ccc3c(C)cc(=O)oc3c2)cc1 [Compound 6802623],inhibition of Hst2 deacetylation by scaffold analogs (in words),Hst2 [1],significantly reduced potency
Cc1cccc(OCC(=O)Oc2ccc3c(C)cc(=O)oc3c2)c1 [Compound 5140108],inhibition of Hst2 deacetylation by scaffold analogs (in words),Hst2 [1],showed some deacetylase inhibition
COc1ccc(OCCCC(=O)Oc2ccc3c(c2)CCC3)cc1 [Compound 6978945],inhibition of Hst2 deacetylation by scaffold analogs (in words),Hst2 [1],significantly reduced potency
